Data reported in US11370776B2, “Sulfonylureas and sulfonylthioureas as NLRP3 inhibitors” (Inflazome Limited, priority 2017, dated 2022).
Where a name gives a salt, the structure may show the parent alone.

What was measured:
NLRP3 [1] = molecular target: T1, NLRP3 (Homo sapiens, UniProt Q96P20); assay: THP-1 cells pyroptosis assay; format: cell-based; parameters: Seed THP-1 cells (25,000 cells/well) containing 1.0 μg/ml LPS; host or cells: THP-1 cells, LPS-primed, nigericin-stimulated; settings: for IC50: 1.0 μg/ml LPS, nigericin 5 μM, pyroptosis read with resazurin; for NLRP3 inhibitory activity (in words): THP-1 pyroptosis assay
T1 sequence (Q96P20 whole entry): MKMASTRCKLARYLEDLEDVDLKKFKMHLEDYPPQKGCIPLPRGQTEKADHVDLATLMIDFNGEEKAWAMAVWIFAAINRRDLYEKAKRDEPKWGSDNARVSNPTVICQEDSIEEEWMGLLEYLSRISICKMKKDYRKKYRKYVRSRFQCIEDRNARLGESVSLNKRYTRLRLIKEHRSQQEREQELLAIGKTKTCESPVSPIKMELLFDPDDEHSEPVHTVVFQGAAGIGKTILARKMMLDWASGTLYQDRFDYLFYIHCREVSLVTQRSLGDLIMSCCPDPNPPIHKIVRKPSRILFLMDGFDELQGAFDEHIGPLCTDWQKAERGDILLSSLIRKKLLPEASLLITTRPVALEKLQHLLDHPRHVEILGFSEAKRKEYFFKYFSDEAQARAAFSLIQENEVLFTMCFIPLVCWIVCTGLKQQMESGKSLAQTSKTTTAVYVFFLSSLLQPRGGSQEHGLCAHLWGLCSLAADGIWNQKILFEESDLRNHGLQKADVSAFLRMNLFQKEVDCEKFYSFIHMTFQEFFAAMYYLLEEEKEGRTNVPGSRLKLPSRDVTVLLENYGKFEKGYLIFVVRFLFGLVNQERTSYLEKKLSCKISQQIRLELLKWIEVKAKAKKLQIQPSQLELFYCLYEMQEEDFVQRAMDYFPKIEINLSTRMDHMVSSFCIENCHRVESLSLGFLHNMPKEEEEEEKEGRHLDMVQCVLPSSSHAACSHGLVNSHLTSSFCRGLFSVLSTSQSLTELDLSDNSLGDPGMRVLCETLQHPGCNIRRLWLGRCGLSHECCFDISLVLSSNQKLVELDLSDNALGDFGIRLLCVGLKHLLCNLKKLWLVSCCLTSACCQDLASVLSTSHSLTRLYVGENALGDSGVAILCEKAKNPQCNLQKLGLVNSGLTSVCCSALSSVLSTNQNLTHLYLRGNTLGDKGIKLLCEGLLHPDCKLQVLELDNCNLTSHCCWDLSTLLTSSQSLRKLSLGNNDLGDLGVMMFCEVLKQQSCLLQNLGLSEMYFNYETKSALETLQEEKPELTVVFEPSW
Experimental: The cells were routinely passaged and grown to confluency (˜10^6 cells/ml). On the day of the experiment, THP-1 cells were harvested and resuspended into RPMI medium (without FBS). The cells were then counted and viability (>90%) checked by Trypan blue (Sigma # T8154). […] To this diluted cell solution was added LPS (Sigma # L4524) to give a 1 μg/ml Final Assay Concentration (FAC). 40 μl of the final preparation was aliquoted into each well of a 96-well plate. The plate thus prepared was used for compound screening. THP-1 Cells Pyroptosis Assay The following method step-by-step assay was followed for compound screening. • 1. […] Add 5 μl nigericin (Sigma # N7143) (FAC 5 μM) to all wells • 5. […] At the end of the incubation period, spin plates at 300×g for 3 mins and remove supernatant • 7. Then add 50 μl of resazurin (Sigma # R7017) (FAC 100 μM resazurin in RPMI medium without FBS) and incubate plates for a further 1-2 hrs at 37° C. and 5% CO2 • 8. […] IC50 data is fitted to a non-linear regression equation (log inhibitor vs response-variable slope 4-parameters) [table]

NLRP3 [2] = molecular target: T1, NLRP3; assay: Human whole blood IL1β release assay; format: cell-based; parameters: Human whole blood in Li-heparin tubes was obtained from healthy donors; from tissue; host or cells: human whole blood from healthy donors, LPS-primed, nigericin-stimulated
Experimental: Human Whole Blood IL1β Release Assay
For systemic delivery, the ability to inhibit NLRP3 when the compounds are present within the bloodstream is of great importance. For this reason, the NLRP3 inhibitory activity of a number of compounds in human whole blood was investigated in accordance with the following protocol.
Human whole blood in Li-heparin tubes was obtained from healthy donors from a volunteer donor panel. • 1. […] Incubate for 3 hrs at 37° C., 5% CO2 • 4. Add 10 μl Nigericin (Sigma # N7143) (10 μM FAC) to all wells • 5. Incubate for 1 hr at 37° C., 5% CO2 • 6. At the end of the incubation period, spin plates at 300×g for 5 mins to pellet cells and remove 20 μl of supernatant and add to 96-well v-bottom plates for IL-1β analysis (note: these plates containing the supernatants can be stored at −80° C. to be analysed at a later date) • 7. IL-1β was measured according to the manufacturer protocol (Perkin Elmer-AlphaLisa IL-1 Kit AL220E-5000) • 8. IC50 data is fitted to a non-linear regression equation (log inhibitor vs response-variable slope 4-parameters)

[3] = THP-1 cells, read-out: THP IC50
[4] = human whole blood, 1 μg/ml LPS, nigericin 10 μM, IL-1β release, read-out: HWB IC50

SMILES | IC50 (NLRP3 [1]; [3]) | IC50 (NLRP3 [2]; [4]) | NLRP3 inhibitory activity (in words) (NLRP3 [1]) | IC50 (NLRP3 [1]; THP IC50, THP-1 cells) | IC50 (NLRP3 [2])
CN(C)c1cncc(S(=O)(=O)NC(=O)Nc2c3c(cc4c2CCC4)CCC3)n1 [Example 27, 6-(Dimethylamino)-N-((1,2,3,5,6,7-hexahydro-s-indacen-4-yl)carbamoyl)pyrazine-2-sulfonamide, Potassium Salt] | < 800 nM | < 7500 nM | – | – | –
Cc1cc(C)nc(S(=O)(=O)NC(=O)Nc2c(-c3ccncc3)cc(F)c3c2CCC3)n1 [Example 49, N-((7-Fluoro-5-(pyridin-4-yl)-2,3-dihydro-1H-inden-4-yl)carbamoyl)-4,6-dimethylpyrimidine-2-sulfonamide] | < 800 nM | < 2500 nM | highly active | – | –
CN(C)c1cncc(S(=O)(=O)NC(=O)Nc2c(-c3ccncc3)cc(F)c3c2CCC3)n1 [Example 37, 6-(Dimethylamino)-N-((7-fluoro-5-(pyridin-4-yl)-2,3-dihydro-1H-inden-4-yl)carbamoyl)pyrazine-2-sulfonamide] | < 800 nM | < 2500 nM | – | – | –
Cc1cc(C)nc(S(=O)(=O)NC(=O)Nc2c3c(cc4c2CCC4)CCC3)n1 [Example 18, N-((1,2,3,5,6,7-Hexahydro-s-indacen-4-yl)carbamoyl)-4,6-dimethyl pyrimidine-2-sulfonamide, Potassium Salt] | < 800 nM | < 2500 nM | highly active | – | –
Cc1cc(C)nc(S(=O)(=O)NC(=O)Nc2c(-c3ccnc(C#N)c3)cc(F)cc2C(C)C)n1 [Example 46, N-((2-(2-Cyanopyridin-4-yl)-4-fluoro-6-isopropylphenyl)carbamoyl)-4,6-dimethylpyrimidine-2-sulfonamide] | < 800 nM | < 2500 nM | highly active | – | –
COc1cc(-c2ccc3c(c2NC(=O)NS(=O)(=O)c2ccc(CN(C)C)nc2)CCC3)ccn1 [Example 58, 6-((Dimethylamino)methyl)-N-((5-(2-methoxypyridin-4-yl)-2,3-dihydro-1H-inden-4-yl)carbamoyl)pyridine-3-sulfonamide] | < 800 nM | < 2500 nM | – | – | –
COc1nccnc1S(=O)(=O)NC(=O)Nc1c2c(cc3c1CCC3)CCC2 [Example 8, N-((1,2,3,5,6,7-Hexahydro-s-indacen-4-yl)carbamoyl)-3-methoxypyrazine-2-sulfonamide, Potassium Salt] | < 800 nM | < 5000 nM | – | – | –
CC(C)c1cc(F)cc(-c2ccnc(C#N)c2)c1NC(=O)NS(=O)(=O)c1cc(N(C)C)cnn1 [Example 50, N-((2-(2-Cyanopyridin-4-yl)-4-fluoro-6-isopropylphenyl)carbamoyl)-5-(dimethylamino) pyridazine-3-sulfonamide] | < 800 nM | < 2500 nM | – | – | –
CC(C)c1cc(F)cc(-c2ccnc(C#N)c2)c1NC(=O)NS(=O)(=O)c1cnc(N(C)C)cn1 [Example 38, N-((2-(2-Cyanopyridin-4-yl)-4-fluoro-6-isopropylphenyl)carbamoyl)-5-(dimethylamino)pyrazine-2-sulfonamide] | < 800 nM | < 2500 nM | – | – | –
COc1cc(-c2cc(F)cc(C(C)C)c2NC(=O)NS(=O)(=O)c2cc(N(C)C)cnn2)ccn1 [Example 51, 5-(Dimethylamino)-N-((4-fluoro-2-isopropyl-6-(2-methoxypyridin-4-yl)phenyl)carbamoyl) pyridazine-3-sulfonamide] | – | – | – | < 800 nM | < 2500 nM
Cc1ccnc(S(=O)(=O)NC(=O)Nc2c3c(cc4c2CCC4)CCC3)n1 [Example 17, N-((1,2,3,5,6,7-Hexahydro-s-indacen-4-yl)carbamoyl)-4-methyl pyrimidine-2-sulfonamide, Potassium Salt] | < 1200 nM | < 5000 nM | – | – | –
Nc1ncc(S(=O)(=O)NC(=O)Nc2c3c(cc4c2CCC4)CCC3)cn1 [Example 9, 2-Amino-N-((1,2,3,5,6,7-hexahydro-s-indacen-4-yl)carbamoyl) pyrimidine-5-sulfonamide, Potassium Salt] | < 2000 nM | < 2500 nM | – | – | –
COc1cc(-c2ccc3c(c2NC(=O)NS(=O)(=O)c2nc(C)cc(C)n2)CCC3)ccn1 [Example 48, N-((5-(2-Methoxypyridin-4-yl)-2,3-dihydro-1H-inden-4-yl)carbamoyl)-4,6-dimethylpyrimidine-2-sulfonamide] | < 800 nM | < 2500 nM | highly active | – | –
COc1cc(-c2ccc3c(c2NC(=O)NS(=O)(=O)c2ccnc(C(C)C)c2)CCC3)ccn1 [Example 60, 2-Isopropyl-N-((5-(2-methoxypyridin-4-yl)-2,3-dihydro-1H-inden-4-yl)carbamoyl)pyridine-4-sulfonamide, sodium salt] | < 800 nM | < 2500 nM | – | – | –
COc1cc(-c2ccc3c(c2NC(=O)NS(=O)(=O)c2cc(N(C)C)cnn2)CCC3)ccn1 [Example 52, 5-(Dimethylamino)-N-((5-(2-methoxypyridin-4-yl)-2,3-dihydro-1H-inden-4-yl)carbamoyl) pyridazine-3-sulfonamide] | < 800 nM | < 2500 nM | – | – | –
CN(C)c1cnc(S(=O)(=O)NC(=O)Nc2c3c(cc4c2CCC4)CCC3)cn1 [Example 26, 5-(Dimethylamino)-N-((1,2,3,5,6,7-hexahydro-s-indacen-4-yl)carbamoyl)pyrazine-2-sulfonamide, Potassium Salt] | < 800 nM | – | – | – | –
Cc1ccc(S(=O)(=O)NC(=O)Nc2c(C(C)C)cccc2C(C)C)nn1 [Example 5, N-((2,6-Diisopropylphenyl)carbamoyl)-6-methylpyridazine-3-sulfonamide, Potassium Salt] | < 10000 nM | – | – | – | –
CC(C)c1cccc(C(C)C)c1NC(=O)NS(=O)(=O)c1cnccn1 [Example 6, N-((2,6-Diisopropylphenyl)carbamoyl)pyrazine-2-sulfonamide, Sodium Salt] | < 10000 nM | – | – | – | –
Cc1nccnc1S(=O)(=O)NC(=O)Nc1c2c(cc3c1CCC3)CCC2 [Example 29, N-((1,2,3,5,6,7-Hexahydro-s-indacen-4-yl)carbamoyl)-3-methylpyrazine-2-sulfonamide, Potassium Salt] | < 10000 nM | – | – | – | –
Cc1cc(N(C)C)nc(S(=O)(=O)NC(=O)Nc2c3c(cc4c2CCC4)CCC3)n1 [Example 56, 4-(Dimethylamino)-N-((1,2,3,5,6,7-hexahydro-s-indacen-4-yl)carbamoyl)-6-methylpyrimidine-2-sulfonamide, potassium salt] | < 800 nM | – | highly active | – | –
COc1cc(-c2cc(F)cc(C(C)C)c2NC(=O)NS(=O)(=O)c2cnc(N(C)C)cn2)ccn1 [Example 39, 5-(Dimethylamino)-N-((4-fluoro-2-isopropyl-6-(2-methoxypyridin-4-yl)phenyl)carbamoyl)pyrazine-2-sulfonamide] | < 800 nM | – | – | – | –
CN1CCN(c2cncc(S(=O)(=O)NC(=O)Nc3c4c(cc5c3CCC5)CCC4)n2)CC1 [Example 54, N-((1,2,3,5,6,7-Hexahydro-s-indacen-4-yl)carbamoyl)-6-(4-methylpiperazin-1-yl)pyrazine-2-sulfonamide, Potassium Salt] | < 2000 nM | – | – | – | –
Cc1nn(C)c2ncc(S(=O)(=O)NC(=O)Nc3c4c(cc5c3CCC5)CCC4)cc12 [Example 31, N-((1,2,3,5,6,7-Hexahydro-s-indacen-4-yl)carbamoyl)-1,3-dimethyl-1H-pyrazolo[3,4-b]pyridine-5-sulfonamide, Potassium Salt] | < 10000 nM | – | – | – | –
NC(=O)c1ccc(S(=O)(=O)NC(=O)Nc2c3c(cc4c2CCC4)CCC3)nn1 [Example 20, 6-(N-((1,2,3,5,6,7-Hexahydro-s-indacen-4-yl)carbamoyl)sulfamoyl) pyridazine-3-carboxamide, potassium salt] | < 10000 nM | – | – | – | –
O=C(Nc1c2c(cc3c1CCC3)CCC2)NS(=O)(=O)c1cccnn1 [Example 2, N-((1,2,3,5,6,7-Hexahydro-s-indacen-4-yl)carbamoyl)pyridazine-3-sulfonamide, Potassium Salt] | < 2000 nM | – | – | – | –
Cc1ccc(S(=O)(=O)NC(=O)Nc2c3c(cc4c2CCC4)CCC3)nn1 [Example 4, N-((1,2,3,5,6,7-Hexahydro-s-indacen-4-yl)carbamoyl)-6-methylpyridazine-3-sulfonamide, Sodium Salt] | < 10000 nM | – | – | – | –
